Data from article PMC7933434, “Entropy-driven binding of gut bacterial β-glucuronidase inhibitors ameliorates irinotecan-induced toxicity” (Communications Biology, 2021).
Values joined by “and” are separate entries in the source; they are usually repeats but may differ in a detail not shown here. Identical values can stand only once.

Experiments:
[1] = target: EcGUS (Escherichia coli GUS) (Escherichia coli, UniProt P05804); test: biochemical
[2] = target: LgGUS (Lactobacillus gasseri GUS) (Lactobacillus gasseri, UniProt Q9AHJ8); test: GUS inhibition assay, hydrolysis of 4-methylumbelliferyl-β-glucuronide, LgGUS; assay type: biochemical; set-up: GUS activity (hydrolysis rate of MUG) / 1/v: unit not given here
LgGUS (Lactobacillus gasseri GUS), sequence (Q9AHJ8 1-598): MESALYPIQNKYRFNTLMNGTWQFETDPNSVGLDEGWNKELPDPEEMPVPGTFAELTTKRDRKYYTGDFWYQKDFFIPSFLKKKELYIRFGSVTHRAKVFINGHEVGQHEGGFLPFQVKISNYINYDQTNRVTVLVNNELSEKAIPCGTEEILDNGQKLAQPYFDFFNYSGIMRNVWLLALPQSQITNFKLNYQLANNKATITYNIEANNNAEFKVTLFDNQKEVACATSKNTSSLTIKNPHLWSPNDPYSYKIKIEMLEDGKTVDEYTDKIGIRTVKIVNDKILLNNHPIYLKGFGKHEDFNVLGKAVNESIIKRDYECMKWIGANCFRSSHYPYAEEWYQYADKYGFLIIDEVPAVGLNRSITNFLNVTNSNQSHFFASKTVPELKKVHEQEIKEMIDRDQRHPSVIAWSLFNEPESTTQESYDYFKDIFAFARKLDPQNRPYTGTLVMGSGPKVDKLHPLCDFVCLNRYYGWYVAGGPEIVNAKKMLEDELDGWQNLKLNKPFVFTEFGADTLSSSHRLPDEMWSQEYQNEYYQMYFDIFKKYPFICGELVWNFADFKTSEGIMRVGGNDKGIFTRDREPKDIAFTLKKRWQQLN

[3] = target: BdGUS (Bifidobacterium dentium GUS) (Bifidobacterium dentium, UniProt D2Q7B1); test: biochemical; set-up: GUS activity (hydrolysis rate of MUG) / 1/v: unit not given here
BdGUS (Bifidobacterium dentium GUS), sequence (D2Q7B1 1-668): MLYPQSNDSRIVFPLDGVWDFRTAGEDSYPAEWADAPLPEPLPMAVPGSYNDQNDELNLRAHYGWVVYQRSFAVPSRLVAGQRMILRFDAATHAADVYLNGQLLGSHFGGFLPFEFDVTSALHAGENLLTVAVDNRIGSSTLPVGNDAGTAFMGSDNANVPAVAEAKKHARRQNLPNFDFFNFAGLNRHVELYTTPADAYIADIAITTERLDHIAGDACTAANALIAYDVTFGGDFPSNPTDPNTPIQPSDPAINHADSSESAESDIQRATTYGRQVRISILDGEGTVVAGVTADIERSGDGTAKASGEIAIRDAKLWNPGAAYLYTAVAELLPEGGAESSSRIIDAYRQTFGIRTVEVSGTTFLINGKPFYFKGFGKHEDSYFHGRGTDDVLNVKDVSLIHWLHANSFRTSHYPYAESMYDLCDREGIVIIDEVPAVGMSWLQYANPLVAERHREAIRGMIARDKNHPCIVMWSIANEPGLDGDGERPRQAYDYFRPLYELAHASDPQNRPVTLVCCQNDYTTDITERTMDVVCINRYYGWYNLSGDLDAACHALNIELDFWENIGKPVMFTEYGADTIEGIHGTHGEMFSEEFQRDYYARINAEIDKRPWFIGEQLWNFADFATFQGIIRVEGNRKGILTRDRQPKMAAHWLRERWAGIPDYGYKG

[4] = target: T1, GUS activity in live E. coli cells (Escherichia coli, UniProt P05804); test: GUS activity in live E. coli cells; assay type: cell-based; conditions: E. coli cells (OD600 = 1.89) treated for 30 min, then GUS activity measured
T1 construct: endogenous in cells
T1 sequence (P05804 whole entry): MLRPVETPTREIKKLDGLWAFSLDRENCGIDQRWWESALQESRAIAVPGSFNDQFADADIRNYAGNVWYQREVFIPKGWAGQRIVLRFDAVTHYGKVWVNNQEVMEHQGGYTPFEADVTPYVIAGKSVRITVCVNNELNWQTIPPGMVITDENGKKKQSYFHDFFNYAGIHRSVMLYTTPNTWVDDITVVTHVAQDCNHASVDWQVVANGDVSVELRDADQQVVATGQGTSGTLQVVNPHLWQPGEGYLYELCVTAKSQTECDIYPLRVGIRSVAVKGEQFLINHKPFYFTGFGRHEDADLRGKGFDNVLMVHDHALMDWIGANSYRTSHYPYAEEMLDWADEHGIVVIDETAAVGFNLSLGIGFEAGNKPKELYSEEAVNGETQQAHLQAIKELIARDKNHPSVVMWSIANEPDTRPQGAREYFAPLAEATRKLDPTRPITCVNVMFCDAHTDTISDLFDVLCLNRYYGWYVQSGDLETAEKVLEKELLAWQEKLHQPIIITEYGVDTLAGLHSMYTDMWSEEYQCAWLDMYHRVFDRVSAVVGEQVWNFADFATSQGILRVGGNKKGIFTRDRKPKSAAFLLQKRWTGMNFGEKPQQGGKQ
Description: To examine if inhibitors 2–4 could inhibit GUS activity in vivo, E. coli cells (OD600 = 1.89) were treated with each of 2–4 for 30 min, after which GUS activity was measured. […]; 3, 18.6 nM; and 4, 3.69 nM (Supplementary Fig. 9a). […]. […] Additionally, to evaluate cell viability, E. coli cultures were treated with ampicillin (positive control), DMSO, or inhibitors 2–4 (100 μM) for 6 h.
Supplementary Figure 9 Inhibitors 2–4 sho w in hi biti on ag ai n st G US acti vity in l i ve E. co li cell s. (a) GUS activity was measured in live E. coli. Af t e r E. coli were incubated with DMSO or an inhibitor ( 2–4), GUS activity was measured using 4-methylumbelliferyl-β-glucuronide as the substrate. The release of fluorescent 4-methylumbelliferone was detected at 445 nm (excitation, 345 nm). Compared with the negative c ont rol (DMSO ), […]
[…]. (b) Colony formation assay. None of the inhibitors affected bacterial growth. As a negative control, E. coli cells were incubated with ampicillin (100 μg/mL). Results are expressed as the mean of triplicate samples ± SEM.
(1 picture or pasted object on this page, not shown here)

[5] = target: EcGUS (Escherichia coli, UniProt P05804); test: Isothermal titration calorimetry, EcGUS; assay type: binding; conditions: for entropy contribution to binding: sign (positive = favourable); for Kd / ΔG / ΔH / —TΔS: EcGUS, 298 K
EcGUS, sequence (P05804 whole entry): as above

[6] = target: BdGUS (Bifidobacterium dentium, UniProt D2Q7B1); test: biochemical; assay type: binding
BdGUS, sequence (D2Q7B1 entry or part of it): as the sequence (D2Q7B1 1-668) above

[7] = [Inhibitor 2] = 10 μM, [MUG] 0.0375 mM
[8] = [Inhibitor 2] = 10 μM, [MUG] 0.075 mM
[9] = [Inhibitor 2] = 10 μM, [MUG] 0.15 mM
[10] = [Inhibitor 2] = 10 μM, [MUG] 0.3 mM
[11] = [Inhibitor 2] = 20 μM, [MUG] 0.0375 mM
[12] = [Inhibitor 2] = 20 μM, [MUG] 0.075 mM
[13] = [Inhibitor 2] = 20 μM, [MUG] 0.15 mM
[14] = [Inhibitor 2] = 20 μM, [MUG] 0.3 mM
[15] = [Inhibitor 2] = 40 μM, [MUG] 0.0375 mM
[16] = [Inhibitor 2] = 40 μM, [MUG] 0.075 mM
[17] = [Inhibitor 2] = 40 μM, [MUG] 0.15 mM
[18] = [Inhibitor 2] = 40 μM, [MUG] 0.3 mM
[19] = [Inhibitor 2] = 80 μM, [MUG] 0.0375 mM
[20] = [Inhibitor 2] = 80 μM, [MUG] 0.075 mM
[21] = [Inhibitor 2] = 80 μM, [MUG] 0.15 mM
[22] = [Inhibitor 2] = 80 μM, [MUG] 0.3 mM
[23] = [Inhibitor 2] = 3.75 μM, [MUG] 0.375 mM
[24] = [Inhibitor 2] = 3.75 μM, [MUG] 0.75 mM
[25] = [Inhibitor 2] = 3.75 μM, [MUG] 1.5 mM
[26] = [Inhibitor 2] = 3.75 μM, [MUG] 3 mM
[27] = [Inhibitor 2] = 7.5 μM, [MUG] 0.375 mM
[28] = [Inhibitor 2] = 7.5 μM, [MUG] 0.75 mM
[29] = [Inhibitor 2] = 7.5 μM, [MUG] 1.5 mM
[30] = [Inhibitor 2] = 7.5 μM, [MUG] 3 mM
[31] = [Inhibitor 2] = 15 μM, [MUG] 0.375 mM
[32] = [Inhibitor 2] = 15 μM, [MUG] 0.75 mM
[33] = [Inhibitor 2] = 15 μM, [MUG] 1.5 mM
[34] = [Inhibitor 2] = 15 μM, [MUG] 3 mM
[35] = [Inhibitor 2] = 30 μM, [MUG] 0.375 mM
[36] = [Inhibitor 2] = 30 μM, [MUG] 0.75 mM
[37] = [Inhibitor 2] = 30 μM, [MUG] 1.5 mM
[38] = [Inhibitor 2] = 30 μM, [MUG] 3 mM
[39] = Tris buffer (250 mM NaCl, 20 mM Tris, pH 8.0)
[40] = phosphate buffer (250 mM NaCl, 20 mM KH2PO4, 100 mM Na2HPO4, pH 8.0)
[41] = BdGUS, Tris buffer (250 mM NaCl, 20 mM Tris, pH 8.0), 298 K

EcGUS (Escherichia coli GUS), sequence (P05804 whole entry): as the sequence (P05804 whole entry) above

CCC[C@@H]1NC[C@@H](O)[C@H](O)[C@H]1C(=O)O [Inhibitor 2, C6-propyl UIFG]
Ki ([1]; 50 mM HEPES pH 7.5, 37 °C): 0.035 ± 0.009 µM
Ki ([1]; source data of Table 1, from plot of apparent Km against [inhibitor] (μM)): 0.0352 µM
Ki ([2]; LgGUS, 50 mM sodium acetate pH 4.5, 37 °C): 18800 ± 3920 nM
1/v [2, 7]: 0.2959 and 0.2974 and 0.2686
GUS activity (hydrolysis rate of MUG) [2, 7]: 4192.53 and 4171.53 and 4614.39
1/v [2, 8]: 0.2107 and 0.1906 and 0.2077
GUS activity (hydrolysis rate of MUG) [2, 8]: 5869.97 and 6487.03 and 5954.69
1/v [2, 9]: 0.1628 and 0.149 and 0.1679
GUS activity (hydrolysis rate of MUG) [2, 9]: 7584.59 and 8286.19 and 7358.86
1/v [2, 10]: 0.1383 and 0.1264 and 0.1356
GUS activity (hydrolysis rate of MUG) [2, 10]: 8920.98 and 9760.49 and 9099.17
1/v [2, 11]: 0.3501 and 0.314 and 0.3449
GUS activity (hydrolysis rate of MUG) [2, 11]: 3549.69 and 3952.79 and 3602.4
1/v [2, 12]: 0.2306 and 0.2185 and 0.2316
GUS activity (hydrolysis rate of MUG) [2, 12]: 5367.33 and 5663.13 and 5345.77
1/v [2, 13]: 0.1785 and 0.1636 and 0.1746
GUS activity (hydrolysis rate of MUG) [2, 13]: 6921.34 and 7548.25 and 7076.25
1/v [2, 14]: 0.1408 and 0.1323 and 0.1394
GUS activity (hydrolysis rate of MUG) [2, 14]: 8767.09 and 9326.73 and 8851.1
1/v [2, 15]: 0.4229 and 0.3884 and 0.4078
GUS activity (hydrolysis rate of MUG) [2, 15]: 2945.2 and 3203.76 and 3052.97
1/v [2, 16]: 0.2757 and 0.2635 and 0.2787
GUS activity (hydrolysis rate of MUG) [2, 16]: 4496.55 and 4702.63 and 4448.51
1/v [2, 17]: 0.1987 and 0.186 and 0.1977
GUS activity (hydrolysis rate of MUG) [2, 17]: 6224 and 6644.75 and 6252.92
1/v [2, 18]: 0.1513 and 0.1407 and 0.1527
GUS activity (hydrolysis rate of MUG) [2, 18]: 8157.58 and 8770.43 and 8083.43
1/v [2, 19]: 0.6318 and 0.5917 and 0.6372
GUS activity (hydrolysis rate of MUG) [2, 19]: 1984.8 and 2116.68 and 1968.46
1/v [2, 20]: 0.3742 and 0.3532 and 0.3763
GUS activity (hydrolysis rate of MUG) [2, 20]: 3323.3 and 3518.37 and 3305.44
1/v [2, 21]: 0.2434 and 0.2308 and 0.2421
GUS activity (hydrolysis rate of MUG) [2, 21]: 5087.86 and 5362.93 and 5115.03
1/v [2, 22]: 0.1723 and 0.1599 and 0.1688
GUS activity (hydrolysis rate of MUG) [2, 22]: 7171.31 and 7724.06 and 7316.31
Ki ([3]; BdGUS, 50 mM HEPES pH 7.5, 37 °C): 4900 ± 1200 nM
1/v [3, 23]: 0.7586 and 0.7898 and 0.7689
GUS activity (hydrolysis rate of MUG) [3, 23]: 0.2944 and 0.2827 and 0.2904
1/v [3, 24]: 0.5053 and 0.4969 and 0.4765
GUS activity (hydrolysis rate of MUG) [3, 24]: 0.4419 and 0.4494 and 0.4686
1/v [3, 25]: 0.3454 and 0.3517 and 0.3523
GUS activity (hydrolysis rate of MUG) [3, 25]: 0.6465 and 0.6349 and 0.6338
1/v [3, 26]: 0.3078 and 0.2975 and 0.297
GUS activity (hydrolysis rate of MUG) [3, 26]: 0.7254 and 0.7507 and 0.7517
1/v [3, 27]: 0.9443 and 1.067 and 1.0389
GUS activity (hydrolysis rate of MUG) [3, 27]: 0.2365 and 0.2092 and 0.2149
1/v [3, 28]: 0.6301 and 0.6229 and 0.6281
GUS activity (hydrolysis rate of MUG) [3, 28]: 0.3544 and 0.3585 and 0.3555
1/v [3, 29]: 0.4203 and 0.4167 and 0.4011
GUS activity (hydrolysis rate of MUG) [3, 29]: 0.5313 and 0.5358 and 0.5568
1/v [3, 30]: 0.3397 and 0.3356 and 0.3208
GUS activity (hydrolysis rate of MUG) [3, 30]: 0.6574 and 0.6654 and 0.6962
1/v [3, 31]: 1.396 and 1.589 and 1.568
GUS activity (hydrolysis rate of MUG) [3, 31]: 0.1599 and 0.1405 and 0.1424
1/v [3, 32]: 0.9143 and 0.8906 and 0.8101
GUS activity (hydrolysis rate of MUG) [3, 32]: 0.2442 and 0.2507 and 0.2757
1/v [3, 33]: 0.5734 and 0.5628 and 0.516
GUS activity (hydrolysis rate of MUG) [3, 33]: 0.3894 and 0.3968 and 0.4327
1/v [3, 34]: 0.4154 and 0.412 and 0.4013
GUS activity (hydrolysis rate of MUG) [3, 34]: 0.5375 and 0.5419 and 0.5564
1/v [3, 35]: 2.375 and 2.7756 and 2.7044
GUS activity (hydrolysis rate of MUG) [3, 35]: 0.09401 and 0.08045 and 0.08257
1/v [3, 36]: 1.493 and 1.508 and 1.184
GUS activity (hydrolysis rate of MUG) [3, 36]: 0.1495 and 0.1481 and 0.1887
1/v [3, 37]: 0.8717 and 0.8385 and 0.8277
GUS activity (hydrolysis rate of MUG) [3, 37]: 0.2562 and 0.2663 and 0.2698
1/v [3, 38]: 0.5634 and 0.5659 and 0.5111
GUS activity (hydrolysis rate of MUG) [3, 38]: 0.3964 and 0.3946 and 0.4369
IC50 [4]: 1200 nM
ΔΔH1–2 (enthalpy penalty of 2 relative to 1) ([5]; EcGUS in Tris buffer): +6.2 kcal mol^−1
–TΔΔS1–2 (2 relative to 1) ([5]; EcGUS in Tris buffer): –5.6 kcal mol^−1
entropy contribution to binding ([5]; EcGUS in Tris buffer): +7.1 kcal mol^−1
ΔΔH1–2 (enthalpy penalty of 2 relative to 1) ([5]; EcGUS in phosphate buffer): +5.5 kcal mol^−1
–TΔΔS1–2 (2 relative to 1) ([5]; EcGUS in phosphate buffer): –4.6 kcal mol^−1
entropy contribution to binding ([5]; EcGUS in phosphate buffer): +5.0 kcal mol^−1
Kd [5, 39]: 60 ± 4.9 nM
ΔG [5, 39]: –10.01 ± 0.58 kcal/mol
ΔH [5, 39]: –2.90 ± 0.23 kcal/mol
—TΔS [5, 39]: –7.11 ± 0.82 kcal/mol
Kd [5, 40]: 280 ± 50 nM
ΔG [5, 40]: –8.96 ± 0.09 kcal/mol
ΔH [5, 40]: –3.99 ± 0.06 kcal/mol
—TΔS [5, 40]: –4.97 ± 0.15 kcal/mol
ΔΔH1–2 (enthalpy penalty of 2 relative to 1) ([6]; BdGUS in Tris buffer): +8.5 kcal mol^−1
–TΔΔS1–2 (2 relative to 1) ([6]; BdGUS in Tris buffer): -6.2 kcal/mol
entropy contribution to binding ([6]; BdGUS in Tris buffer, sign (positive = favourable)): +4.6 kcal mol^−1
Kd [6, 41]: 14500 ± 3550 nM
ΔG [6, 41]: –6.60 ± 0.15 kcal/mol
ΔH [6, 41]: –1.97 ± 0.15 kcal/mol
—TΔS [6, 41]: –4.64 ± 0.30 kcal/mol
